The target in this assay is T1, human FP receptor (Homo sapiens, UniProt P43088).
T1 construct: expressed in transfected cells
Briefly: Ca2+ signaling: antagonism of the 17-phenyl PGF2α response in HEK cells stably transfected with the human FP receptor. The note with it: compared with the compound of U.S. Pat. Nos. 5,100,889 and 5,153,327. Format: cell-based. The procedure: The compound of Example 22 was tested for PGF2αantagonist activity as follows:
HEK cells stably transfected with the human FP receptor were removed from the culture flasks by approximately 1 min treatment with trypsin 0.05%/0.53 mM EDTA in HBSS (Gibco, Grand Island, N.Y.) at 37° C. Proteolytic activity was arrested by adding 5 ml of 10% fetal bovine serum in DMEM. The cells were consecutively washed in Hank's BSS and medium containing 140 mM NaCl, […], 1 mM MgCl2, 1.5 mM CaCl2, 10 mM HEPES: TRIS, 5 mM glucose, 5 mM Na pyruvate, 0.1% bovine serum albumin at pH 7.4: centrifugation for the washes was performed for 15 minutes at 200 g at room temperature. Cells were counted, resuspended in the above medium and incubated with 2×10^−6 M Fura 2/acetoxymethyl ester in a shaking water bath for 30 minutes at 37° C. The cells were subsequently washed in medium as above and resuspended at a concentration of 2×10^6 cells ml^−1. Aliquots of 0.5 ml cell suspension were then added to autocap microtubes to provide 10^6 cells per experimental determination of intracellular free Ca^2+concentration ([Ca^2+]i).
Fluorescence was measured in a Perkin-Elmer LS-5 fluorescence spectrophotometer at excitation and emission wavelengths of 340 and 492 nm, respectively, with both slits at 10 nm. […]

Results on two compounds are retold here after patent US6407250B1, “Interphenylene 7-oxabicyclic [2.2.1] heptane oxazoles as prostaglandin F2a antagonists” (Allergan Sales, Inc., priority 2000, dated 2002).

T1 sequence (P43088 whole entry): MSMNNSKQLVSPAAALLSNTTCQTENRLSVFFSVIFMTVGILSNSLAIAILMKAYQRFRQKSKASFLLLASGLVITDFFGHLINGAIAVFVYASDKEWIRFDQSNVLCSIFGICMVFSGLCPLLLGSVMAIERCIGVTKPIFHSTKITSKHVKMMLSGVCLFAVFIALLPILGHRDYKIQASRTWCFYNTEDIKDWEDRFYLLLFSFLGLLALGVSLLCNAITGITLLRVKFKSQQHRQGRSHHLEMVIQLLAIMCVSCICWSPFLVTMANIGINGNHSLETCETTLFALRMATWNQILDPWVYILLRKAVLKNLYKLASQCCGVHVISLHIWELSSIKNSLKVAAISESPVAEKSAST

Regarding `COC(=O)CCc1ccccc1CC1C2CCC(O2)C1c1nc(C(=O)NCCCCC2CCCCC2)co1` (centres unmarked), the “PGF2α antagonist activity (comparison in words)” value is recorded as “much less active than the corresponding acid”.

`O=C(O)CCc1ccc(F)cc1C[C@@H]1[C@H](c2nc(C(=O)NCCCCC3CCCCC3)co2)[C@H]2CC[C@H]1O2` [Example 22, 3-(2-{(1R, 2R, 3S, 4R)-3-[4-(4-Cyclohexyl-butylcarbamoyl)-oxazol-2-yl]-7-oxa-bicyclo[2.2.1]hept-2-ylmethyl}-4-fluoro-phenyl)-propionic acid]: the “PGF2α antagonist activity (comparison in words)” value is “greater than the compound disclosed in U.S. Pat. Nos. 5,100,889 and 5,153,327”.
